Patent publication US20170283850A1, “METHODS OF DETECTING ADENOSINE DEAMINASE DEFICIENCY” (CHILDREN'S HOSPITAL OF EASTERN ONTARIO, priority 2014, published 2017)

Legend:
[1] = Stability of purine metabolites in DBS on storage; format: physicochemical; details: 5 and 25 μmol/L in DBS, stored 4.5 weeks at −20° C., 23° C. (ambient) and 30° C.
Protocol: Stability of purine metabolites in DBS was assessed by storing spiked samples (5 and 25 μmol/L) at various temperatures (ambient, −20° C. and 30° C.). Analysis was carried out as described over a period of […].
Analysis of DBS specimens containing Ado, dAdo, Gua and dGua at 5 and 25 μmol/L stored for a period of 4.5 weeks at −20° C., 23° C.

[2] = Loss of standard purines added to whole blood (residual ADA activity); format: in vitro ADME; details: whole blood without EHNA
Protocol: DBS calibrators could not be prepared in this work due to residual ADA activity that persisted after traditional enzyme deactivation treatments such as freeze-thawing or heating whole blood at 45° C. for 24 hours. EHNA, a specific ADA inhibitor, was added to whole blood to prevent the deamination of Ado and dAdo to inosine and deoxyinosine, respectively. Purine metabolites were extracted from 3.2 mm dried calibrators or DBS specimens using an aqueous solution of 70% methanol (v/v) containing isotope labeled IS. This solution was added directly into a 96-well plate containing samples and incubated at 37° C. with shaking (650 rpm). The extraction yield reached its maximum at 15 minutes or more. The following experiments therefore were performed at 37° C. for 15 min. Purine metabolites were stable for at least 24 h when stored in a tightly sealed vial at 8° C.
SCID newborn screening began in the United States following the recent addition of this condition to the uniform panel as recommended by the US Department of Health and Human Services. In Canada, Ontario was the first jurisdiction to screen for SCID, which began in August, 2013. TREC analysis is the primary screening method and can be achieved by real-time PCR using neonatal DBS, the sample of choice for newborn screening. However, TREC analysis is inadequate to provide additional information regarding the etiology of SCID. […]

[3] = biological target: ADA (Homo sapiens, UniProt P00813); details: DBS eluate, substrate 1.0 μmol/L, 37° C., 30 minutes or more
ADA, sequence (P00813 whole entry): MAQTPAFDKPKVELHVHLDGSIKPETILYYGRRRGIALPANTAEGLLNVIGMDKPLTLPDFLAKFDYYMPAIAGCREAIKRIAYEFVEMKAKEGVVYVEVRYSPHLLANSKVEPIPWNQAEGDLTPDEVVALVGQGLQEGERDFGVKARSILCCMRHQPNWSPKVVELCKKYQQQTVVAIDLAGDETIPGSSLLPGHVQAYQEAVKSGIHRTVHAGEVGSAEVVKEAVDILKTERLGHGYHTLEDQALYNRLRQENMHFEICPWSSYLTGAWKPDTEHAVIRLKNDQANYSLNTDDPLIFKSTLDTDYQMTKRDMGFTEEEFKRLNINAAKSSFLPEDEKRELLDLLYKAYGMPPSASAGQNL
Protocol: A 3.2 mm DBS sample was punched into the designated well of a 96 multi-well filter plate (Pall Corp, Ann Arbor, Mich., USA) and eluted using 120 μl of water by shaking at 650 rpm (24° C. for 30 min). After filtration under vacuum, two 40 μl portions of the eluate were dispensed into two 2 ml microtubes (Axygen, Union City, Calif., USA) and labeled Test and Blank. To the tube labeled Test, 10 μl of 10 μmol/l of EHNA in water were added whereas water (10 μl) was added to Blank tubes. The tubes were vortexed for 10 sec and allowed to sit at room temperature for 5 min. To each tube, 50 μl 2 mmol/L ammonium acetate containing 1 μmol/L of ^13C10, ^15N5 Ado and ^15N5 dAdo were added as ADA substrates. The mixture was incubated at 37° C. with shaking (20 rpm). After 30 minutes, the enzymatic reaction was stopped by adding 400 μl of acetonitrile containing ^13C5 Ado (0.125 μmol/L) and the mixture was vortexed for 30 sec. […] The enzyme activity expressed as pmol of residual substrate per DBS was measured by calculating the difference of ^13C10, ^15N5 Ado and ^15N5 dAdo in Test and Blank after the enzymatic reaction.
ADA activity assay conditions were determined by monitoring the enzyme reaction (up to 60 min), substrate concentration (1-10 μmol/L), EHNA concentration (2.5-160 NM) and incubation temperature (30-60° C.).

| Compound | Stability in DBS specimens [1] | Stability on adding standard purines to whole blood [2] | Optimum EHNA concentration for ADA activity measurements [3] [µM] |
| --- | --- | --- | --- |
| Nc1ncnc2c1ncn2[C@@H]1O[C@H](CO)[C@@H](O)[C@H]1O [Ado, adenosine] | stable | immediate loss |  |
| Nc1nc2c(ncn2[C@@H]2O[C@H](CO)[C@@H](O)[C@H]2O)c(=O)[nH]1 [Gua, guanosine] | stable |  |  |
| erythro-9-(2-hydroxy-3-nonyl) adenine [EHNA] |  |  | ≥ 10 |

More lines, now with the values ahead:

| Stability in DBS specimens [1] | Stability on adding standard purines to whole blood [2] | Optimum EHNA concentration for ADA activity measurements [3] [µM] | Compound |
| --- | --- | --- | --- |
| stable | immediate loss |  | Nc1ncnc2c1ncn2[C@H]1C[C@H](O)[C@@H](CO)O1 [dAdo, deoxyadenosine] |
| stable |  |  | Nc1nc2c(ncn2[C@H]2C[C@H](O)[C@@H](CO)O2)c(=O)[nH]1 [dGua, deoxyguanosine] |
